Measurements taken from PubChem BioAssay (NCI).
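Five compound concentrations were applied to cells in 96-well plates for 48 hours; endpoints were derived by simple linear interpolation of the resulting dose-response curve. GI50: concentration for 50% inhibition of growth. TGI is the concentration that stops growth completely.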

Legend:
Assay in all cases: growth of human tumour cells (NCI), 48 h
[1] = tested on: CAKI-1 renal
[2] = tested on: HCT-15 colon
[3] = tested on: SK-MEL-5 melanoma
[4] = tested on: HOP-62 NSCLC
[5] = tested on: SF-539 CNS
[6] = tested on: M14 melanoma
[7] = tested on: NCI-H23 lung
[8] = tested on: OVCAR-3 ovarian
[9] = tested on: HCT-116 colon
[10] = tested on: IGROV1 ovarian

Row | Structure (SMILES) | GI50 [1] | TGI [1] | GI50 [2] | TGI [2] | GI50 [3] | TGI [3] | GI50 [4] | TGI [4] | GI50 [5] | TGI [5] | GI50 [6] | TGI [6] | GI50 [7] | TGI [7] | GI50 [8] | TGI [8] | GI50 [9] | TGI [9] | GI50 [10] | TGI [10]
1 | Cc1nc([C@H]2CC[C@H]3[C@@H]4CCC5=CC(=O)CC[C@]5(C)[C@H]4CC[C@]23C)cs1 | 2.3 µM | > 100 µM | 4.97 µM | > 100 µM | 1.45 µM | > 100 µM | > 100 µM | > 100 µM | 18.3 µM | > 100 µM | 15.9 µM | > 100 µM | 2.58 µM | > 100 µM | > 22.6 µM | > 100 µM | 3.47 µM | > 100 µM | > 40.3 µM | > 100 µM
2 | CN(/N=C/c1cccc2cccnc12)c1ccc([N+](=O)[O-])cc1 | – | > 100 µM | – | > 100 µM | – | > 100 µM | – | > 100 µM | – | > 100 µM | – | > 100 µM | – | > 100 µM | – | > 100 µM | – | > 100 µM | – | > 100 µM
3 | CCN1C2=NCCN2S(=O)(=O)c2ccccc21 | – | > 100 µM | – | > 100 µM | – | > 100 µM | – | > 100 µM | – | > 100 µM | – | > 100 µM | – | > 100 µM | – | > 100 µM | – | > 100 µM | – | > 100 µM
4 | CS(=O)(=O)CCNCc1ccc(-c2ccc3ncnc(Nc4ccc(OCc5cccc(F)c5)c(C(F)(F)F)c4)c3c2)o1 | 4.59 µM | 13.7 µM | 4.02 µM | 9.12 µM | 2.84 µM | 5.9 µM | 4.03 µM | 8.27 µM | 4.59 µM | 12.3 µM | 4.36 µM | 8.67 µM | 3.88 µM | 8.51 µM | 4.07 µM | 8.47 µM | 3.94 µM | 8.16 µM | 4.56 µM | 13.5 µM
5 | N#CSc1c[nH]c2ccc(/C=C/C(=O)/C=C(/C=C/c3ccc4[nH]cc(SC#N)c4c3)OB(F)F)cc12 | 0.531 µM | 4.05 µM | 0.249 µM | 1.09 µM | 1.37 µM | 2.93 µM | 3.86 µM | 38.9 µM | 1.86 µM | 6.17 µM | 0.374 µM | 1.68 µM | 0.947 µM | 3.86 µM | 0.264 µM | 0.762 µM | 0.0887 µM | 0.375 µM | 0.352 µM | 1.37 µM
6 | O/N=C1/C(=C/c2ccc(Oc3ccccc3)cc2)CCCC1C(NO)c1ccc(Oc2ccccc2)cc1 (stereo not given) | – | 88.6 µM | – | > 100 µM | – | 36.7 µM | – | > 100 µM | – | > 100 µM | – | > 100 µM | – | 63.3 µM | – | > 100 µM | – | 24.6 µM | – | > 100 µM
7 | Fc1ccc(-c2ncn(C3CCNCC3)c2-c2ccnc(Oc3ccc(F)c(F)c3)n2)cc1 | 10.6 µM | > 20.6 µM | 5.64 µM | 15.6 µM | 3.55 µM | 6.83 µM | 4.83 µM | 9.56 µM | 4.94 µM | 9.8 µM | 4.8 µM | 8.97 µM | > 17.8 µM | > 25 µM | 6.68 µM | > 14.4 µM | 4.09 µM | 7.56 µM | 8.61 µM | > 22.6 µM
8 | CCOC(=O)C(=O)Nc1ccc(Cl)cc1C | – | > 100 µM | – | > 100 µM | – | > 100 µM | – | > 100 µM | – | > 100 µM | – | > 100 µM | – | > 100 µM | – | > 100 µM | – | > 100 µM | – | > 100 µM
9 | Cc1nc(-c2ccccc2)cc2c1c(=O)oc1ccccc12 | – | > 100 µM | – | > 100 µM | – | > 100 µM | – | > 100 µM | – | > 100 µM | – | > 100 µM | – | > 100 µM | – | > 100 µM | – | > 100 µM | – | > 100 µM
10 | CC(=O)N1c2ccccc2NC2=C(C(=O)N(Cc3ccccc3)C2(C)C)C1c1ccco1 (stereo not given) | 3.41 µM | > 25 µM | 1.2 µM | > 25 µM | 0.871 µM | > 25 µM | 1.25 µM | > 25 µM | 0.395 µM | 1.17 µM | 0.748 µM | 5.31 µM | 0.494 µM | > 25 µM | 0.208 µM | 1.42 µM | 0.692 µM | > 25 µM | 0.893 µM | > 25 µM
11 | Cc1nc(CN2CCCCC2)c(O)c(=O)[nH]1 | – | > 100 µM | – | > 100 µM | – | > 100 µM | – | > 100 µM | – | > 100 µM | – | > 100 µM | – | > 100 µM | – | > 100 µM | – | > 100 µM | – | > 100 µM
12 | CN1C(c2ccccc2)CS(=O)(=O)CS1(=O)=O (stereo not given) | – | > 100 µM | – | > 100 µM | – | > 100 µM | – | > 100 µM | – | > 100 µM | – | > 100 µM | – | > 100 µM | – | 88.7 µM | – | > 100 µM | – | > 100 µM
13 | O=[N+]([O-])/C=C/c1cc2ccccc2[nH]1 | – | 33.7 µM | – | 53.6 µM | – | 28.2 µM | – | 32.4 µM | – | 25.5 µM | – | 28.5 µM | – | 30.2 µM | – | 28.2 µM | – | 15.7 µM | – | 26.3 µM
